The values below come from patent US20090203901A1, “Process for preparing pyrazole functionalized benzodiazepinones” (Roche Colorado Corporation, priority 2008, published 2009).

Data set [1] concerns tumor growth and metastasis. The following applies: cited from earlier work.
Data set [2] relates to vascular endothelial cell proliferation. The following applies: endothelial versus tumor cell proliferation; cited from earlier work.

With `COc1cc(NC(=O)CBr)c(C(=O)c2ccccc2Cl)cc1F`, the melting point – broadly, the temperature, or range, at which the solid turns liquid – lay within 177 to 178 °C.

Compound `COc1cc2c(cc1F)C(c1ccccc1Cl)=NCC(=O)N2` gave a melting point of 210 to 212.5 °C.

Turning to `CO[C@@H]1[C@H](OC(=O)NC(=O)CCl)CC[C@]2(CO2)[C@H]1[C@@]1(C)O[C@@H]1CC=C(C)C` [AGM-1470], the “tumor growth and metastasis in vivo” value in data set [1] was “inhibits tumor growth and metastasis in vivo”. Further, the “half-maximal inhibition of vascular endothelial cell proliferation at lower concentration than tumor cell proliferation” value in data set [2] is 4 logs.

Consider `COc1cc(F)c(C(=O)c2ccccc2Cl)cc1F` [Example 1, 2′-Chloro-2,5-difluoro-4-methoxybenzophenone], for which the melting point fell in the range of 84 to 85 °C.

`COc1cc(NCc2ccccc2)c(C(=O)c2ccccc2Cl)cc1F` [Example 2, 2-(Benzylamino)-2′-chloro-5-fluoro-4-methoxybenzophenone]: the melting point fell in the range of 122 to 124 °C.

As to `COc1cc(N)c(C(=O)c2ccccc2Cl)cc1F` [Example 3a, 2-Amino-2′-chloro-5-fluoro-4-methoxybenzophenone], the melting point is 130.5 to 132.5 °C.

On to `C=CCNc1cc(OC)c(F)cc1C(=O)c1ccccc1Cl` [Example 9, 2-(Allylamino)-2′chloro-5-fluoro-4-methoxybenzophenone], for which the melting point lay in the range of 125 to 127 °C.
